The nature of this test: Oral spray bitterness masking taste test by volunteers with Coptis chinensis standard bitter solution. Also on record: key to bitterness value after drug: bitterness value 0.5–5.5; 1 = none, 5 = unbearable; key to Reduction of bitterness: drop in bitterness value (0.5–5.5 scale) from initial. In kind it is in vivo, healthy volunteers. Conditions: for Duration >: retention time until bitterness rises; for bitterness value after drug: initial bitterness 4.0, 16 cases; for inhibition in vivo at 0.2 %: Homo sapiens, read-out: Reduction range. On the procedure:
Purpose of the experiment: it is to screen out compounds that take effect within 5 seconds, last for 30-120 seconds, and it is expected, by using such kind of compounds, the taste of the drug cannot be felt during the duration (30-120 seconds) when taking the drug.
Principle of the experiment: simulate the process of taking medicine and using the taste masking agents, first spray about 0.5 ml of oral spray on the throat (3 times), and after it takes effect quickly, taste 10 ml of bitter standard solution to screen drugs that can be used in advance and can mask the bitter taste.
• 1: Volunteer screening. The research team strictly screened the recruited volunteers and finally selected healthy volunteers as subjects. They signed informed consent forms before the experiment; • 2: Standard bitterness sample preparation. The bitterness of the samples was divided into five levels, and each level was assigned a certain bitterness value range; • 3: The sensory standard was corrected by the oral taste evaluation method, that is, the sensory standard was corrected by comparing the taste evaluation of the volunteers with the established bitterness value of the reference sample group. Specific steps: when the volunteers are doing the oral tasting test, the reference solutions of various concentrations are placed in the tasting cups, and the volunteers hold one of the solutions in their mouths, time it, and rinse their mouths by using the solution so that the bitter taste perception area at the root and sides of the tongue can fully feel the bitter taste of the drug. […] Then dilute all the selected taste masking drugs, prepare the solution, take 10 ml and put it into the spray bottle, spray it into the mouth 3 times, stay for 5 seconds, drink 10 ml of standard bitterness solution, feel and record the bitterness value, keep the standard bitterness solution in the mouth until the bitterness rises, and record the retention time. • 5: Quality control. […] Since the experimental objects are biological samples and there are individual differences between different subjects, there may be individual outliers in the experimental test data. The Grubbs test method was used to exclude outliers in the data, and then the experimental data were plotted in tables and curves for data analysis.
It is necessary to process the experimental data. Specifically, the Grubbs test method was used to perform a circular test and elimination of outliers on the data, and a bilateral test was used to eliminate outliers in the oral test. Considering the characteristics of biological samples, the detection level was selected as 0.1 and the elimination level was selected as 0.05 in this experiment.
The experimental medicinal material processing method mentioned in the above technical scheme is as follows: Preparation of bitter standard solution, use 10 g of Coptis chinensis powder, add 100 ml of pure water above 90 degrees, stir, let stand for 20 minutes, take the supernatant for use, determine the standard bitterness of 4.0 degrees by oral tasting, dilute 5 times, determine the standard bitterness of 2.0 degrees, dilute 2.0 degrees again 5 times, determine the standard bitterness of 0.5 degrees. Compare with the bitterness scoring table, (level 1 means “no bitterness or almost no bitterness”, the bitterness value is 0.5˜1.5; level 2 means “slightly bitter”, the bitterness value is 1.5˜2.5; level 3 means “bitter but acceptable”, the bitterness value is 2.5˜3.5; level 4 means “very bitter, but still tolerable”, the bitterness value is 3.5˜4.5; level 5 means “unbearable bitterness”, the bitterness value is 4.5˜5.5). Adjust the judgment and cognition of bitterness.
The standard bitterness solution used in this experiment to verify the experimental effect is a 4.0 degree bitterness solution of Coptis chinensis prepared according to the above method.

Where [1] appears, read: 0.2% solution in 60% ethanol as oral spray, relative to original bitterness 4.0.
Setting [2] is: 0.2% solution in 60% ethanol as oral spray.
[3] abbreviates: concentration 0.001% in 60% ethanol.
The mark [4] stands for this setting: concentration 0.005% in 60% ethanol.
[5] abbreviates: concentration 0.02% in 60% ethanol.
Where [6] appears, read: concentration 0.10% in 60% ethanol.
[7] abbreviates: concentration 0.50% in 60% ethanol.

Read-outs that look alike come from different tables or passages of the source. Some results are limits rather than exact numbers.

In turn, `CC(C)[C@@H]1CC[C@@H](C)C[C@H]1OC(=O)CCC(=O)O` [Menthyl succinate] registered a Reduction of bitterness (0.2% solution in 60% ethanol as oral spray, original bitterness average 4.0, average of 31 cases) of 1.6. This compound came in with a Reduction range under setting [1] of 40.00%. The “Duration >” value under setting [2] is given as more than 10 s. For the same compound, the “bitterness value after drug” value amounted to 3.2 under setting [3]; 2.8 under setting [4]; 2.6 under setting [5]; 2.4 under setting [6]; 2.1 under setting [7].
Turning to `C=CCc1ccc(OC(C)=O)c(OC)c1` [Eugenol acetate], under setting [2], the “Duration >” value was more than 60 s. Also, the inhibition in vivo at 0.2 % under setting [1] worked out at 60%. The “bitterness value after drug” value was 3.8 under setting [3]; 3.2 under setting [4]; 2.3 under setting [5]; 1.6 under setting [6]; 1.4 under setting [7].
As for `C=CC(C)(O)CCC=C(C)C` (centres unmarked) [Linalool, linalool], under setting [2], the “Duration >” value was more than 30 s. Moreover, the inhibition in vivo at 0.2 % under setting [1] was determined as 52.5%. The “bitterness value after drug” value is recorded as 3.5 under setting [3]; 2.5 under setting [4]; 2.1 under setting [5]; 1.9 under setting [6]; 1.9 under setting [7].
As for `CC(C)=CCCC(C)=CC=O` [Citral, citral], the “Duration >” value under setting [2] is listed as more than 30 s. Under setting [1], the inhibition in vivo at 0.2 % amounted to 57.5%. Also, the “bitterness value after drug” value under setting [3] was 3.7; the “bitterness value after drug” value under setting [4] is 2.8; the “bitterness value after drug” value under setting [5] was 2.1; the “bitterness value after drug” value under setting [6] is reported as 1.7; the “bitterness value after drug” value under setting [7] is given as 1.9.
For `O=CC=Cc1ccccc1` [Cinnamaldehyde, 3-phenyl-2-propenal], the “Duration >” value under setting [2] is on record as more than 50 s. The inhibition in vivo at 0.2 % under setting [1] came to 72.5%. For the same compound, the “bitterness value after drug” value is, setting by setting: under setting [3], 3.5; under setting [4], 2.6; under setting [5], 1.5; under setting [6], 1.1; under setting [7], 1.2.
Consider `COc1ccc(CCN(C)CCCC(C#N)(c2ccc(OC)c(OC)c2)C(C)C)cc1OC` (centres unmarked) [Verapamil, 5-((3,4-dimethoxyphenylethyl)methylamino)-2-(3,4-dimethoxyphenyl)-2-isopropylvaleronitrile, reference compound], for which the inhibition in vivo at 0.2 % (po) was found to be 0%.
Regarding `CC1CCC(C(C)C)C(=O)C1` (centres unmarked) [Menthone, 5-methyl-2-isopropylcyclohexanone], the “Duration >” value under setting [2] is more than 30 s. Further, the inhibition in vivo at 0.2 % under setting [1] is 70%. The “bitterness value after drug” value under setting [3] came to 2.5; the “bitterness value after drug” value under setting [4] came to 2.1; the “bitterness value after drug” value under setting [5] turned out to be 1.4; the “bitterness value after drug” value under setting [6] stood at 1.2; the “bitterness value after drug” value under setting [7] amounted to 1.1.
On to `CCCCC[C@H](O)CC(=O)CCc1ccc(O)c(OC)c1` [Gingerol, 6-gingerol], for which the “Duration >” value under setting [2] was more than 20 s. Moreover, the inhibition in vivo at 0.2 % under setting [1] came out at 55%. Further, the “bitterness value after drug” value is, setting by setting: under setting [3], 4; under setting [4], 2.4; under setting [5], 2.1; under setting [6], 1.8; under setting [7], 1.8.
With `COc1cc(C(=O)O)ccc1O` [Vanillic acid, 3-methoxy-4-hydroxybenzoic acid], under setting [2], the “Duration >” value is more than 50 s. The inhibition in vivo at 0.2 % under setting [1] is 27.5%.

Values taken from patent US20250108023A1, “Products for Masking Bitterness” (The Third People's Hospital of Henan Province, priority 2023, published 2025).
